Assay type in all cases: cell-based, mouse
In assay [1] the test system is dendritic cells. The experiment in a line: Migration assay in micro-channels. As to the method:
(§1) Mouse bone-marrow cells were cultured during 10-12 days in medium supplemented with fetal calf serum and granulocyte-macrophage colony stimulating factor-containing supernatant obtained from transfected J558 cells, as previously described (Faure-Andre et al, 2008, Science, 322, 1705-10). For migration or mapping assays (see below), cells at day 10-12 were activated with 100 ng/ml of LPS (mature cells, LPS DCs), for 30 min, then rinsed 3 times with complete media and put into the channels. Counterpart immature cells for these experiments are treated in the same condition, but in absence of LPS.
Micro-channels were prepared as previously described (Faure-Andre et al, 2008, Science, 322, 1705-10; Heuze et al., 2011, Methods Mol Biol., 769, 415-434). They were incubated with 10 μg/ml fibronectin alone for 1 h and washed with PBS.
For migration assay, cells were loaded in micro-channels (section 5×5 μm) and imaged at least for 16 hours on an epifluorescence video-microscope Nikon TiE microscope equipped with a cooled CCD camera (HQ2, Photometrics) with a 10× objective, one transmission phase image taken every 2 minutes. Kymograph extraction and instantaneous velocity analysis were performed using a homemade program as described previously (Faure-Andre et al, 2008, Science, 322, 1705-10).

In assay [2] the test system is dendritic cells. Description: Mapping assay of polymerized actin in migrating Lifeact dendritic cells. The following applies: immature DCs. As to the method: as §1
Lifeact dendritic cells (nucleofected or not) were incubated for 30 min in […] Hoechst-containing medium, washed 3 times and 10^5 cells per well were loaded and incubated from 4 h to overnight to allow their entry into micro-channels (section was 8×5 μm). After entry, cells were imaged at least for 16 hours on an epifluorescence video-microscope Nikon TiE microscope equipped with a cooled CCD camera (HQ2, Photometrics) with a 20× objective. Images were acquired every 3 minutes. […] Furthermore for each cell, spatial coordinates of the nuclei were measured and ratio between the mean actin density at the front and at the back of the nucleus was computed. […]

The test system of assay [3] is dendritic cells. Description: Flow cytometry analysis of CD86 levels (DC activation/maturation). The note with it: immature and LPS-matured cells, 5 or 10 μM. Here is the method:
The following reagents were used for imaging experiments: WGA AlexaFluor-647 and Hoechst (both from Life Technologies). Micro-channels were coated with Fibronectin (Sigma). Cell activation was performed with LPS (Sigma). For flow cytometry the following antibodies were used: anti-CD86 (GL1 clone, 553692) and a Rat IgG2a,κ isotype control (553930) from BD Biosciences.
as §1
Cells were resuspended in staining buffer (PBS BSA 2%) and stained 30 min at 4° C. with the indicated antibodies. Cells were then washed 3 times and resuspended in staining buffer. All Facs experiments were carried on an Accuri flow cytometer (BD Biosciences).
On the technique in general: Flow cytometry measures light scatter and fluorescence of single cells or particles in a stream.

Entries after “also recorded” stand apart in the source; their conditions may differ.

Take MLSA1: in assay [1] (immature DCs), the cell velocity entry was “increases” and the persistence result is recorded as “increases”. In assay [1] (mature cells (LPS DCs)), the cell velocity result is “does not further increase” and the persistence result was “does not further increase”. The “actin polymerization at the cell center/cell rear” value in assay [2] is on record as “enriched at their rear; also recorded: partially induces”. Moreover, the “fraction of time spent by DCs with actin at their front” value in assay [2] (compared to immature control DCs) is given as “decreased”. Moreover, the “CD86 levels (cell activation / LPS-induced maturation)” value in assay [3] is “No effect; also recorded: does not activate immature cells, nor prevent the LPS-induced maturation”.

The values are drawn from US10100313B2, “Use of Mcoln-1 modulators to regulate cell migration” (INSTITUT CURIE, priority 2014, dated 2018).
